experiment: in vitro; settings: rat, rat liver microsomes, pH 7.4
Experimental: Several compounds were evaluated for stability in rat liver microsomes.
The test compounds (1 p) were incubated at 37° C. in phosphate buffer (50 mM, pH 7.4) containing rat liver microsomes (1 mg/mL protein) and NADPH (Nicotinamide Adenine Dinucleotide Phosphate, reduced form) (4 mM). The incubation mixtures were quenched with trichloroacetic acid (0.3 M) over 0, 5, 15, 30 min time-course. Quenched solutions were centrifuged and supernatants were transferred for LC/MS quantitation. The half life of a test compounds was derived from the compound stability curve over the time course.

Row | Structure (SMILES) | half-life at 1 p
1 | N#Cc1ccccc1Cn1c(N2CCCC(N)C2)nc2ccccc2c1=O (stereo not drawn) [Example 1, 2-[2-(3-Amino-piperidin-1-yl)-4-oxo4H-quinazolin-3-ylmethyl]-benzonitrile] | 2.5 min
2 | COc1cc2nc(N3CCCC(N)C3)n(Cc3ccccc3C#N)c(=O)c2cc1OC (stereo not drawn) [Example 2, 2-[2-(3-Amino-piperidin-1-yl)-6,7-dimethoxy-4-oxo-4H-quinazolin-3-ylmethyl]-benzonitrile] | 107 min
3 | N#Cc1ccccc1Cn1c(N2CCCC(N)C2)nc2ccc(F)cc2c1=O (stereo not drawn) [Example 6, 2-[2-(3-Amino-piperidin-1-yl)-6-fluoro4-oxo4H-quinazolin-3-ylmethyl]-benzonitrile] | 31 min
